“And” between values parts separate entries of the source, which are not always exact repeats. Equal entries are not always repeated. Where two headings read alike, the source gives them in different places.
Assays:
Rlig1-AMP = target: T1, Rlig1-AMP (Homo sapiens, UniProt Q8N999); assay: FRET-based high-throughput screening of inhibitors for Rlig1-AMP; type: biochemical; settings: HTS hits; for Raw data [w Enyzm]: with enzyme; for Raw data [w/o Enzym]: without enzyme
T1 construct: made in house; host or cells: E. coli BL21 (DE3), pET15b-Rlig1
T1 sequence (Q8N999 whole entry): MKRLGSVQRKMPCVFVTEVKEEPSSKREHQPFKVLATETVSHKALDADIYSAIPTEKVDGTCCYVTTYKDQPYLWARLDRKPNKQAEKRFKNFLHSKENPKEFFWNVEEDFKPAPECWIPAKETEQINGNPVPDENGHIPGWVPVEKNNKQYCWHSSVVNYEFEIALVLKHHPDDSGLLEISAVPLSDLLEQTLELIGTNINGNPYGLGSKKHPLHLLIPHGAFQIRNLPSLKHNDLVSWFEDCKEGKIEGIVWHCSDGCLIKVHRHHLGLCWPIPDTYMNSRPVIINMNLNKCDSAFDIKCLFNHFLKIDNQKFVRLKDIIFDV

CDK7 [1] = test system: CDK7; set-up: method as in MedChemExpress; settings: ref MedChemExpress; cited from earlier work
T-type Ca2+ channels = test system: T-type Ca2+ channels; set-up: method as in MedChemExpress; settings: T-type currents; ref MedChemExpress; cited from earlier work
L-type currents = test system: L-type currents; set-up: method as in MedChemExpress; settings: ref MedChemExpress; cited from earlier work
rat brain PKC = test system: rat brain PKC; set-up: method as in MedChemExpress; settings: ref MedChemExpress; cited from earlier work
PKC-α = test system: PKC-α; set-up: method as in MedChemExpress; settings: ref MedChemExpress; cited from earlier work
PKC-βI = test system: PKC-βI; set-up: method as in MedChemExpress; settings: ref MedChemExpress; cited from earlier work
PKC-βII = test system: PKC-βII; set-up: method as in MedChemExpress; settings: ref MedChemExpress; cited from earlier work
PKC-γ = test system: PKC-γ; set-up: method as in MedChemExpress; settings: ref MedChemExpress; cited from earlier work
PKC-ε = test system: PKC-ε; set-up: method as in MedChemExpress; settings: ref MedChemExpress; cited from earlier work
HIV-1IIIB = test system: HIV-1IIIB; set-up: method as in MedChemExpress; settings: ref MedChemExpress; cited from earlier work
HIV-1(74V) = test system: HIV-1(74V); set-up: method as in MedChemExpress; settings: ref MedChemExpress; cited from earlier work
HIV-1KM018 = test system: HIV-1KM018; set-up: method as in MedChemExpress; settings: ref MedChemExpress; cited from earlier work
[2] = DMSO; ref MedChemExpress; cited from earlier work
c-Myc-Max = test system: c-Myc-Max; set-up: method as in MedChemExpress; settings: c-Myc-Max dimerization; ref MedChemExpress; cited from earlier work
Pim-1 = test system: Pim-1; set-up: method as in MedChemExpress; settings: ref MedChemExpress; cited from earlier work
Pim-2 = test system: Pim-2; set-up: method as in MedChemExpress; settings: ref MedChemExpress; cited from earlier work
[3] = DMSO; ref MedChemExpress; cited from earlier work; remark: listed apart in the source
CDK7 [4] = target: CDK7; set-up: method as in MedChemExpress; settings: ref MedChemExpress; cited from earlier work; remark: listed apart in the source
VEGFR1 = test system: VEGFR1; set-up: method as in MedChemExpress; settings: ref MedChemExpress; cited from earlier work
VEGFR2 = test system: VEGFR2; set-up: method as in MedChemExpress; settings: ref MedChemExpress; cited from earlier work
FGFR1 = test system: FGFR1; set-up: method as in MedChemExpress; settings: ref MedChemExpress; cited from earlier work
FGFR2 = test system: FGFR2; set-up: method as in MedChemExpress; settings: ref MedChemExpress; cited from earlier work
PDGFRβ = test system: PDGFRβ; set-up: method as in MedChemExpress; settings: ref MedChemExpress; cited from earlier work
Fgr = test system: Fgr; set-up: method as in MedChemExpress; settings: ref MedChemExpress; cited from earlier work
Fyn = test system: Fyn; set-up: method as in MedChemExpress; settings: ref MedChemExpress; cited from earlier work
Hck = test system: Hck; set-up: method as in MedChemExpress; settings: ref MedChemExpress; cited from earlier work
Lck = test system: Lck; set-up: method as in MedChemExpress; settings: ref MedChemExpress; cited from earlier work
Lyn = test system: Lyn; set-up: method as in MedChemExpress; settings: ref MedChemExpress; cited from earlier work
Src = test system: Src; set-up: method as in MedChemExpress; settings: ref MedChemExpress; cited from earlier work
Yes = test system: Yes; set-up: method as in MedChemExpress; settings: ref MedChemExpress; cited from earlier work
ETB receptor = target: ETB receptor; set-up: method as in MedChemExpress; settings: inhibition of ET-1 binding to human Girardi heart cells (ETB); ref MedChemExpress; cited from earlier work
ETA receptors = target: ETA receptors; set-up: method as in MedChemExpress; settings: binding to ETA receptors in SK-N-MC cells; ref MedChemExpress; cited from earlier work
SirT2 = test system: SirT2; set-up: method as in MedChemExpress; settings: ref MedChemExpress; cited from earlier work
SirT5 = test system: SirT5; set-up: method as in MedChemExpress; settings: ref MedChemExpress; cited from earlier work
DNA topoisomerase II = target: DNA topoisomerase II; set-up: method as in MedChemExpress; settings: ref MedChemExpress; cited from earlier work
FLT3 wild type = test system: FLT3 wild type; set-up: method as in MedChemExpress; settings: ref MedChemExpress; cited from earlier work
FLT3-D835Y = test system: FLT3-D835Y; set-up: method as in MedChemExpress; settings: ref MedChemExpress; cited from earlier work
Shp1 (SH-PTP1) = test system: Shp1 (SH-PTP1); set-up: method as in MedChemExpress; settings: ref MedChemExpress; cited from earlier work
BRD4 BD1 = test system: BRD4 BD1; set-up: method as in MedChemExpress; settings: ref MedChemExpress; cited from earlier work
BRD4 BD2 = test system: BRD4 BD2; set-up: method as in MedChemExpress; settings: ref MedChemExpress; cited from earlier work
Syk = test system: Syk; set-up: method as in MedChemExpress; settings: ref MedChemExpress; cited from earlier work
PI3Kα = test system: PI3Kα; set-up: method as in MedChemExpress; settings: ref MedChemExpress; cited from earlier work
[5] = test system: other members of the PLK family; set-up: method as in MedChemExpress; settings: ref MedChemExpress; cited from earlier work
Aurora A = test system: Aurora A; set-up: method as in MedChemExpress; settings: ref MedChemExpress; cited from earlier work
Aurora B = test system: Aurora B; set-up: method as in MedChemExpress; settings: ref MedChemExpress; cited from earlier work
KDR = test system: KDR; set-up: method as in MedChemExpress; settings: ref MedChemExpress; cited from earlier work
FLT-3 = test system: FLT-3; set-up: method as in MedChemExpress; settings: ref MedChemExpress; cited from earlier work
[6] = difference of raw data w/o and w enzyme
[7] = difference of raw data without and with enzyme

Row | Compound | 1-D Distance (Rlig1-AMP; [6]) | 1-D Distance.npi (Rlig1-AMP; normalized value (npi)) | Raw data [w Enyzm] (Rlig1-AMP) | Raw data [w/o Enzym] (Rlig1-AMP) | 1-D Distance.npi (Rlig1-AMP; MedChemExpress library) | 1-D Distance (Rlig1-AMP; [7]) | also measured
1 | CN(C)C/C=C/C(=O)Nc1ccc(C(=O)Nc2cccc(Nc3ncc(Cl)c(-c4c[nH]c5ccccc45)n3)c2)cc1.Cl [THZ1 (Hydrochloride)] | 289 | 99.9172 | 6030 | 5741 |  |  | IC50 (CDK7 [1]): 3.2 nM
2 | COCC(=O)O[C@]1(CCN(C)CCCc2nc3ccccc3[nH]2)CCc2cc(F)ccc2[C@@H]1C(C)C.Cl.Cl [Mibefradil (dihydrochloride)] |  |  | 9508 | 11294 | 70.2795 | 1786 | IC50 (T-type Ca2+ channels): 2700 nM; IC50 (L-type currents): 18.6 µM
3 | CC(=O)O.Cn1cc(C2=C(c3cn(CCCN)c4ccccc34)C(=O)NC2=O)c2ccccc21 [Bisindolylmaleimide VIII (acetate)] |  |  | 2831 | 4740 | 70.0569 | 1909 | IC50 (rat brain PKC): 158 nM; IC50 (PKC-α): 53 nM; IC50 (PKC-βI): 195 nM; IC50 (PKC-βII): 163 nM; IC50 (PKC-γ): 213 nM; IC50 (PKC-ε): 175 nM
4 | O=C(O)[C@H]1O[C@@H](Oc2cc3oc(-c4ccc(O)cc4)cc(=O)c3c(O)c2O)[C@H](O)[C@@H](O)[C@@H]1O [Scutellarin] |  |  | 9318 | 11122 |  | 1804 | EC50 (HIV-1IIIB): 26 µM; EC50 (HIV-1(74V)): 253 µM; EC50 (HIV-1KM018): 136 µM; solubility [2]: 100 mg/mL and 216.28 mM
5 | O=[N+]([O-])c1ccc(Nc2ccccc2-c2ccccc2)c2nonc12 [10074-G5] | 758 | 91.4368 | 1415 | 2173 |  |  | IC50 (c-Myc-Max): 146 µM
6 | CN1CCCN(C(=O)c2cccc(-c3ccc(/C=C4/C(=O)Nc5ccc(Cl)cc54)o3)c2)CC1 [CX-6258] | 641 | 93.2533 | 5174 | 5815 |  |  | IC50 (Pim-1): […]; IC50 (Pim-2): 25 nM; solubility [3]: […]
7 | CN(C)C/C=C/C(=O)Nc1ccc(C(=O)N[C@@]2(C)CCC[C@@H](Nc3ncc(Cl)c(-c4c[nH]c5ccccc45)n3)C2)nc1 [Mevociclib] |  |  | 5749 | 5188 | 95.3899 | 561 | Ki (CDK7 [4]): 17.4 nM
8 | Cc1cc(-c2cc(O)ccc2Cl)cc2nnc(Nc3ccc(OCCN4CCCC4)cc3)nc12.Cl [TG 100572 (Hydrochloride)] |  |  | 3376 | 3338 | 103.738 | 38 | IC50 (VEGFR1): 2 nM; IC50 (VEGFR2): 7 nM; IC50 (FGFR1): 2 nM; IC50 (FGFR2): 16 nM; IC50 (PDGFRβ): 13 nM; IC50 (Fgr): 5 nM; IC50 (Fyn): 0.5 nM; IC50 (Hck): 6 nM; IC50 (Lck): 0.1 nM; IC50 (Lyn): 0.4 nM; IC50 (Src): 1 nM; IC50 (Yes): 0.2 nM; solubility [2]: 25 mg/mL and 48.79 mM
9 | CCCC[C@@H](NC(=O)[C@@H](Cc1cn(C(=O)OC)c2ccccc12)NC(=O)[C@H](CC(C)(C)C)NC(=O)N1[C@H](C)CCC[C@@H]1C)C(=O)[O-].[Na+] [BQ-788] |  |  | 8619 | 10323 | 75.2571 | 1704 | IC50 (ETB receptor): 1.2 nM; IC50 (ETA receptors): 1300 nM
10 | Cc1ccc(C(=O)Nc2ccc(S(=O)(=O)[O-])c3cc(S(=O)(=O)[O-])cc(S(=O)(=O)[O-])c23)cc1NC(=O)c1cccc(NC(=O)Nc2cccc(C(=O)Nc3cc(C(=O)Nc4ccc(S(=O)(=O)[O-])c5cc(S(=O)(=O)[O-])cc(S(=O)(=O)[O-])c45)ccc3C)c2)c1.[Na+].[Na+].[Na+].[Na+].[Na+].[Na+] [Suramin (sodium salt)] |  |  | 13348 | 14498 | 85.8095 | 1150 | IC50 (SirT2): 1150 nM; IC50 (SirT5): 22 µM; IC50 (DNA topoisomerase II): 5 µM
11 | CN1CCC(Nc2nc(Nc3ccc(Oc4ccccc4)cc3)c3c(=O)[nH]cc(Br)c3n2)CC1 [G-749] | 603 | 93.9141 | 7489 | 8092 |  |  | IC50 (FLT3 wild type): 0.4 nM; IC50 (FLT3-D835Y): 0.6 nM
12 | O=S(=O)(O)c1ccc2cc(N=Nc3cc(S(=O)(=O)O)c4cccnc4c3O)ccc2c1 [NSC-87877] | 982 | 87.5142 | 1020 |  |  |  | IC50 (Shp1 (SH-PTP1)): 355 nM; solubility [3]: 25 mg/mL and 54.41 mM
13 | Cc1cc(N=Nc2ccc3c(c2)CCC(=O)N3)c(N)cc1O [ZL0420] | 1352 | 80.8903 | 1680 | 3032 |  |  | IC50 (BRD4 BD1): 27 nM; IC50 (BRD4 BD2): 32 nM
14 | Cc1nn(-c2ccnc(Nc3ccc(-c4csc5c(=O)cc(N6CCOCC6)oc45)cc3)n2)cc1CN1CCC1 [SRX3207] |  |  | 7329 | 6363 | 89.3143 | 966 | IC50 (Syk): 10.7 nM; IC50 (PI3Kα): 861 nM; solubility [2]: 5 mg/mL and 9.00 mM
15 | COc1ccc2[nH]c(O)c(C=c3ccc4c(c3)N=NC=4/C=C/c3ccc(N4CCN(C)CC4)nc3)c2c1.Cl.Cl [(1E)-CFI-400437 (dihydrochloride)] |  |  | 4069 | 3882 | 102.026 | 187 | IC50 [5]: > 10 µM; IC50 (Aurora A): 370 nM; IC50 (Aurora B): 210 nM; IC50 (KDR): 480 nM; IC50 (FLT-3): 180 nM

— publication PMC11747885, “Potent inhibitors of the human RNA ligase Rlig1 highlights its role in RNA integrity maintenance under oxidative cellular stress” (Chemical Science, 2025)
